“Also recorded” adds a separate entry of the source.
Key:
Assay type in all cases: cell-based, human
[1] = tested on: skeletal muscles in the soNMJ model; assay: Contraction analysis of soNMJ model by live imaging; conditions: soNMJ model day 75, control hPSC lines (H1, XM001); 10 μM curare
Procedure: (§1) Three different regions of the same coverslip were recorded for contraction analysis using a Leica SP8 confocal microscope. Each region was recorded twice for 3 minutes using brightfield with 20× zoom. To quantify the muscle contraction, each movie was analyzed individually using MuscleMotion (an open source ImageJ Macro). A reference frame was automatically detected by MuscleMotion to measure the contraction as a variation in pixel over time. The results were then plotted in Prism8 (GraphPad).

[2] = tested on: skeletal muscle fibers and neurons of the soNMJ model; assay: Calcium imaging with Fluo8 in neuromuscular cultures; conditions: day 75, Fluo8-AM, 10 μM curare
Procedure: Between day 50 and day 100, the cells were incubated at 37° C. with […] of the cell permeant calcium indicator Fluo-8 AM (Abcam). After 30 minutes of incubation, the cells were washed two times with culture medium (NB without phenol red) and left to recover for 15 min in the incubator prior to the start of any optical recording. During acquisition, the samples were kept at 37° C. with 5% CO2. Fluorescent time series images were acquired with a CSU-W1 spinning disk confocal microscope. The calcium transients were recorded for 2-3 minutes at 20 frames per second in three different conditions: without any treatment, with addition of […] Acetylcholine (Sigma Aldrich) and with addition of 10 μM Curare (Sigma Aldrich).
Analysis of the calcium activity was performed by measuring the variation of fluorescence intensity in each ROI with ImageJ. ROIs were detected manually, and neurons and muscle cells could be distinguished by morphology. The variation of fluorescence intensity for each individual ROI was then plotted in Prism 8 (GraphPad).

NMJs of the soNMJ model = assay: Optogenetic (Channelrhodopsin) stimulation of neurons with muscle contraction readout
Procedure: For specifically stimulating neurons in the neuromuscular culture, cells were incubated with 1E+9 VG/mL AAV8-hSyn-hChR2 (H134R)-GFP for 48 h at day 50. After 3-4 weeks, the expression of ChR2 (H134R)-GFP was assessed using a confocal microscope. Cultures were transferred to the electrophysiology setup described above, and continuously superfused with HEPES-buffered extracellular solution at room temperature. Bright-field images of 2048×2048 were acquired at 10 Hz using an sCMOS camera (Photometrics Prime BSI Express) with 50 ms exposure time. Every 50 s, ChR2-expressing neurons were optically stimulated with three 5-ms flashes of 470 nm light at 10 Hz, with 10 mW/mm2 intensity. For the analysis, the muscle contraction recorded in brightfield was quantified using MuscleMotion (described below), plotted in Prism8 (GraphPad) and correlated to the light […] pulses.
as §1

[3] = tested on: SMA type I hiPSC derived soNMJ cultures; assay: Muscle contraction analysis in SMA type I soNMJ model; conditions: day 50, 10 μM, compared to H1 control
Procedure: as §1

With curare the skeletal muscle contraction [1] was “blocked the contraction of the skeletal muscles”, the “calcium activity / firing of the neurons” value [2] was “without affecting the firing of the neurons” and the “calcium activity in skeletal muscle fibers” value [2] was “blocked the calcium activity in the skeletal muscle fibers; also recorded: abolished the calcium activity in the skeletal muscles”. For the same substance, the “muscle contraction upon optogenetic stimulation of ChR2-GFP+ neurons” value (NMJs of the soNMJ model; day 75, 470 nm light pulse, 10 μM curare) was “inhibition of muscle contraction even upon optogenetic stimulation; also recorded: blocked the optogenetic stimulation of the skeletal muscles”, the “muscle contraction response to blue light stimulation after washout” value (NMJs of the soNMJ model; day 75, after washing out curare) was “restored by washing out curare” and the “muscle contraction in SMA type I soNMJ” value [3] was “did not respond; also recorded: failed to stop spontaneous muscle activity”.
